Measurements as given in US9249116B2, “Enzyme-activating compounds and compositions” (The Board of Trustees of the University of Illinois, priority 2012, dated 2016).
Like-named read-outs stand apart in the source and are kept apart here.

How the values were obtained:
[1] = Liver microsome stability assay; format: in vitro ADME; conditions: rat liver microsomes, 10 μM, LC/MS
Method: FIG. 4. Liver Microsome Stability Assay. Compounds (10 μM) incubated with liver microsomes for 3 h and quenched with MeCN containing internal standard, analyzed by LC/MS (280 nm). Next, the metabolic stability of the compounds was evaluated in rat liver microsomes. The compounds were evaluated for 3 hours at 10 μM, and the metabolites were observed by LC/MS.

[2] = system: U-937 cells (human lymphoma); assay: 72 Hour IC50 cell death assay (sulforhodamine B); format: cell-based
Method: After the synthesis was complete, the biological activity of the compounds was evaluated.
U-937 human lymphoma cells were plated into the wells of 96 well plate at a density of 15,000 cells per well in 99 μL of RPMI 1640 growth media with 10% FBS and 1% pen-strep. To each well was added 1 μL of compound stock solutions in DMSO at varying concentrations such that the cells were treated with concentrations between 0 μM and 100 μM compound. Each concentration was tested in quintuplicate per plate. In each plate 5 wells received 20 μM doxorubicin as a positive death control and 5 wells received 1 μL of DMSO as a negative control.
After the 72 hour incubation period, the plates were analyzed using a Sulforhodamine B assay (Vichai and Kirtikara, Nat Protoc 2006, 1, 1112-1116). Specifically, to each well of the plate 25 μL of a 50% (w/v) solution of trichloroacetic acid in H2O was added and the plates were incubated for 4 hours at 4° C. The plates were then washed gently with water five times. The plates were allowed to air dry after which 100 μL of a 0.057% (w/v) Sulforhodamine B in a 1% (v/v) acetic acid solution was added to each well for 30 minutes at room temperature. The plates were gently washed 5 times with 1% (v/v) acetic acid and air dried. 200 μL of 10 mM Tris base (pH 10.4) was added to each well and the plates were placed on an orbital shaker for thirty minutes. The level of SRB was quantified fluorometrically at excitation and emission wavelengths 488 and 585 nm, respectively, on a Molecular Devices plate reader and the percent cell death calculated and normalized to the positive control (100% cell death) and the negative control (0% cell death). The percent cell death was averaged for each compound concentration and plotted as a function of compound concentration. The data were fit to a logistical dose response curve using Table curve 2D and the IC50 value was calculated. The experiment was repeated three times and the average of the calculated IC50 values was reported. The standard error of the mean (SEM) was determined and reported for the triplicate experiments.

mice = assay: Assessment of toxicity in vivo; conditions: mice; scale 0 to 3, or time of death
Text: The level of toxicity was rated on a scale of 0 (no observable adverse effect) to 3 (severe toxicity, almost fatal).

[3] = read-out: U-937 72 h IC50 (μM), Table 1, U-937 cells, 72 h

SMILES	RLM 3 h % Stability [1]	IC50 [2, 3]	Mouse Toxicity (mice)	IC50 ([2]; U-937, 72 h, read-out: U-937 72 h IC50 (μM))
C=CCc1cc(F)cc(/C=N/NC(=O)CN2CCN(Cc3ccc(C(F)(F)F)cc3)CC2)c1O [Compound 35, N′-(3-allyl-5-fluoro-2-hydroxybenzylidene)-2-(4-(4-(trifluoromethyl)benzyl)piperazin-1-yl)acetohydrazide]	49 ± 3%			
O=C(CN1CCN(Cc2ccccc2)CC1)N/N=C/c1cc(F)ccc1O [Compound 19, 2-(4-benzylpiperazin-1-yl)-N′-(5-fluoro-2-hydroxybenzylidene)acetohydrazide]	64 ± 4%	17 ± 1.4 µM	3	
C=CCc1cc(F)cc(/C=N/NC(=O)CN2CCN(Cc3ccccc3)CC2)c1O [Compound 28, N′-(3-allyl-5-fluoro-2-hydroxybenzylidene)-2-(4-benzylpiperazin-1-yl)acetohydrazide]	56 ± 1%	9.5 ± 0.9 µM	death <24 h (the mice died either within 24 hours of treatment)	
O=C(CN1CCN(C(=O)c2ccc(F)cc2)CC1)N/N=C/c1cc(F)ccc1O [Compound 25, N′-(5-fluoro-2-hydroxybenzylidene)-2-(4-(4-fluorobenzoyl)piperazin-1-yl)acetohydrazide]	86 ± 2%	15.3 ± 0.8 µM		
C=CCc1cc(F)cc(/C=N/NC(=O)CN2CCN(Cc3ccc(S(N)(=O)=O)cc3)CC2)c1O [Compound 29, 4-((4-(2-(2-(3-allyl-5-fluoro-2-hydroxybenzylidene)hydrazinyl)-2-oxoethyl)piperazin-1-yl)methyl)benzenesulfonamide]	89 ± 3%			
CCCc1cccc(/C=N/NC(=O)CN2CCN(C(=O)c3ccc(F)cc3)CC2)c1O [Compound 16, 2-(4-(4-fluorobenzoyl)piperazin-1-yl)-N′-(2-hydroxy-3-propylbenzylidene)acetohydrazide]	69 ± 4%	7.3 ± 0.9 µM		
O=C(CN1CCN(C(=O)c2ccccc2)CC1)N/N=C/c1cc(F)ccc1O [Compound 21, 2-(4-benzoylpiperazin-1-yl)-N′-(5-fluoro-2-hydroxybenzylidene)acetohydrazide]	88 ± 1%	15.7 ± 2.6 µM		
C=CCc1cc(F)cc(/C=N/NC(=O)CN2CCN(C(=O)c3ccc(C(F)(F)F)cc3)CC2)c1O [Compound 36, N′-(3-allyl-5-fluoro-2-hydroxybenzylidene)-2-(4-(4-(trifluoromethyl)benzoyl)piperazin-1-yl)acetohydrazide]	90 ± 2%			
C=CCc1cc(F)cc(/C=N/NC(=O)CN2CCN(Cc3ccc(C#N)cc3)CC2)c1O [Compound 31, N′-(3-allyl-5-fluoro-2-hydroxybenzylidene)-2-(4-(4-cyanobenzyl)piperazin-1-yl)acetohydrazide]	65 ± 2%	12.7 ± 2 µM		
CCCc1cc(F)cc(/C=N/NC(=O)CN2CCN(C(=O)c3ccc(C#N)cc3)CC2)c1O [Compound 41, 2-(4-(4-cyanobenzoyl)piperazin-1-yl)-N′-(5-fluoro-2-hydroxy-3-propylbenzylidene)acetohydrazide]	66 ± 3%			
CCCc1cccc(/C=N/NC(=O)CN2CCN(Cc3ccc(C(F)(F)F)cc3)CC2)c1O [Compound 17]	15 ± 2%			
N#Cc1ccc(C(=O)N2CCN(CC(=O)N/N=C/c3cc(F)ccc3O)CC2)cc1 [Compound 23, 2-(4-(4-cyanobenzoyl)piperazin-1-yl)-N′-(5-fluoro-2-hydroxybenzylidene)acetohydrazide]	88 ± 4%			15.3 ± 1.3 µM
CCCc1cccc(/C=N/NC(=O)CN2CCN(C(=O)c3ccccc3)CC2)c1O [Compound 12, 2-(4-benzoylpiperazin-1-yl)-N′-(2-hydroxy-3-propylbenzylidene)acetohydrazide]	71 ± 3%	9.4 ± 1.3 µM		
CCCc1cccc(/C=N/NC(=O)CN2CCN(Cc3ccc(S(N)(=O)=O)cc3)CC2)c1O [Compound 11, 4-((4-(2-(2-(2-hydroxy-3-propylbenzylidene)hydrazinyl)-2-oxoethyl)piperazin-1-yl)methyl)benzenesulfonamide]	61 ± 2%			
CCCc1cccc(/C=N/NC(=O)CN2CCN(C(=O)c3ccc(C#N)cc3)CC2)c1O [Compound 14, 2-(4-(4-cyanobenzoyl)piperazin-1-yl)-N′-(2-hydroxy-3-propylbenzylidene)acetohydrazide]	61 ± 3%	12.8 ± 2.7 µM		
C=CCc1cc(F)cc(/C=N/NC(=O)CN2CCN(Cc3ccc(F)cc3)CC2)c1O [Compound 33, N′-(3-allyl-5-fluoro-2-hydroxybenzylidene)-2-(4-(4-fluorobenzyl)piperazin-1-yl)acetohydrazide]	57 ± 1%	10.3 ± 4.1 µM		
CCCc1cccc(/C=N/NC(=O)CN2CCN(Cc3ccc(C#N)cc3)CC2)c1O [Compound 13, 2-(4-(4-cyanobenzyl)piperazin-1-yl)-N′-(2-hydroxy-3-propylbenzylidene)acetohydrazide]	30 ± 2%	9 ± 1.2 µM		
C=CCc1cc(F)cc(/C=N/NC(=O)CN2CCN(C(=O)c3ccc(C#N)cc3)CC2)c1O [Compound 32, N′-(3-allyl-5-fluoro-2-hydroxybenzylidene)-2-(4-(4-cyanobenzoyl)piperazin-1-yl)acetohydrazide]	95 ± 4%			
CCCc1cccc(/C=N/NC(=O)CN2CCN(C(=O)c3ccc(C(F)(F)F)cc3)CC2)c1O [Compound 18, N′-(2-hydroxy-3-propylbenzylidene)-2-(4-(4-(trifluoromethyl)benzoyl)piperazin-1-yl)acetohydrazide]	64 ± 1%			
CCCc1cc(F)cc(/C=N/NC(=O)CN2CCN(C(=O)c3ccc(C(F)(F)F)cc3)CC2)c1O [Compound 45, N′-(5-fluoro-2-hydroxy-3-propylbenzylidene)-2-(4-(4-(trifluoromethyl)benzoyl)piperazin-1-yl)acetohydrazide]	64 ± 5%			
C=CCc1cccc(/C=N/NC(=O)CN2CCN(Cc3ccc(C(F)(F)F)cc3)CC2)c1O [Compound 8, N′-(3-allyl-2-hydroxybenzylidene)-2-(4-(4-(trifluoromethyl)benzyl)piperazin-1-yl)acetohydrazide]	16 ± 1%			
CCCc1cc(F)cc(/C=N/NC(=O)CN2CCN(Cc3ccc(F)cc3)CC2)c1O [Compound 42, N′-(5-fluoro-2-hydroxy-3-propylbenzylidene)-2-(4-(4-fluorobenzyl)piperazin-1-yl)acetohydrazide]	48 ± 1%	7.5 ± 0.7 µM		
CCCc1cc(F)cc(/C=N/NC(=O)CN2CCN(Cc3ccc(S(N)(=O)=O)cc3)CC2)c1O [Compound 38, 4-((4-(2-(2-(5-fluoro-2-hydroxy-3-propylbenzylidene)hydrazinyl)-2-oxoethyl)piperazin-1-yl)methyl)benzenesulfonamide]	62 ± 3%			
CCCc1cc(F)cc(/C=N/NC(=O)CN2CCN(Cc3ccc(C#N)cc3)CC2)c1O [Compound 40, 2-(4-(4-cyanobenzyl)piperazin-1-yl)-N′-(5-fluoro-2-hydroxy-3-propylbenzylidene)acetohydrazide]	49 ± 5%	11.2 ± 0.9 µM		
CCCc1cc(F)cc(/C=N/NC(=O)CN2CCN(Cc3ccc(C(F)(F)F)cc3)CC2)c1O [Compound 44, N′-(5-fluoro-2-hydroxy-3-propylbenzylidene)-2-(4-(4-(trifluoromethyl)benzyl)piperazin-1-yl)acetohydrazide]	40 ± 1%			
C=CCc1cccc(/C=N/NC(=O)CN2CCN(C(=O)c3ccc(C(F)(F)F)cc3)CC2)c1O [Compound 9, N′-(3-allyl-2-hydroxybenzylidene)-2-(4-(4-(trifluoromethyl)benzoyl)piperazin-1-yl)acetohydrazide]	85 ± 6%			
